Experimental data taken from ChEMBL document CHEMBL4334442, “Effects of Acetylshikonin on the Infection and Replication of Coxsackievirus A16 in Vitro and in Vivo” (J Nat Prod, 2019).
Calls of active or inactive are those of the source. No cut-off for these calls is given here.

What was measured:
Coxsackievirus A16 [1] = experiment: Antiviral activity against Coxsackievirus A16 TA271 infected in RD cells at preinfection stage assessed as cell detachment at 0.08 uM/L preincubated with cells for 3 hrs followed by viral infection and measured after 1 hr by inverted microscopic analysis; format: functional, cell-based
Coxsackievirus A16 [2] = experiment: Antiviral activity against Coxsackievirus A16 TA271 infected in RD cells at replication stage assessed as cell detachment at 0.08 uM/L 1 hr post-infection viral inoculum was removed and cells incubated with medium containing compound and measured after 5 hrs by inverted microscopic analysis; format: functional, cell-based
Coxsackievirus A16 [3] = experiment: (§1) Antiviral activity against Coxsackievirus A16 TA271 infected in RD cells at release stage assessed as appearance of cell shrinkage at 0.08 uM/L preincubated with cells for 1 hr followed by replacement of fresh medium containing compounds after 5 hrs post infection and further incubated for 16 hrs post infection by inverted microscopic analysis; format: functional, cell-based
Coxsackievirus A16 [4] = experiment: as §1, with “as” for “as appearance of”, “fragmentation” for “shrinkage”; format: functional, cell-based
Coxsackievirus A16 [5] = experiment: Antiviral activity against Coxsackievirus A16 LW614 infected in RD cells assessed as reduction in viral genome copies at 0.08 uM/L preincubated with viral suspension for 2 hrs followed by cell addition and measured at 24 hrs post infection by RT-PCR analysis; format: functional, cell-based
Coxsackievirus A16 [6] = experiment: Antiviral activity against Coxsackievirus A16 TA271 infected in ICR mouse assessed as reduction in lesions in heart at 2 mg/kg, im after 5 days post infection by H and E staining based histopathological analysis; format: functional, organism-based
Coxsackievirus A16 [7] = experiment: Antiviral activity against Coxsackievirus A16 TA271 infected in ICR mouse assessed as mild alveolar wall thickening in spinal muscle at 2 mg/kg, im after 5 days post infection by H and E staining based histopathological analysis; format: functional, organism-based
Coxsackievirus A16 [8] = experiment: Antiviral activity against Coxsackievirus A16 TA271 infected in ICR mouse assessed as effect on virus-induced IL-6 level at 2 mg/kg, im after 3 days post infection by ELISA; format: functional, organism-based
Coxsackievirus A16 [9] = experiment: Antiviral activity against Coxsackievirus A16 TA271 infected in ICR mouse assessed as reduction in virus-induced IL-6 level at 2 mg/kg, im after 3 days post infection by ELISA; format: functional, organism-based

## CC(=O)OC(CC=C(C)C)C1=CC(=O)c2c(O)ccc(O)c2C1=O (centres undefined)
Coxsackievirus A16 [1]
  Activity: inactive
Coxsackievirus A16 [2]
  Activity: inactive
Coxsackievirus A16 [3]
  Activity: inactive
Coxsackievirus A16 [4]
  Activity: inactive
Coxsackievirus A16 [5]
  Activity: Active
Coxsackievirus A16 [6]
  Activity: Active
Coxsackievirus A16 [7]
  Activity: Active
Coxsackievirus A16 [8]
  Activity: inactive
Coxsackievirus A16 [9]
  Activity: Active
